# According to patent US20240390490A1, “PHARMACEUTICAL COMPOSITIONS FOR THE TREATMENT OF CANCERS” (Rutgers, The State University of New Jersey, priority 2021, published 2024):
# Where two headings read alike, the source gives them in different places.
# Key:
# [1] = tested on: T47D cells; assay: cells
# Description: (§1) Cells in media with vehicle treatment are considered control wells. MTT (3-(4,5-dimethyl-2-thiazolyl)-2,5-diphenyl-2H-tetrazolium bromide) was prepared as a stock solution of 5 mg/mL in 1× phosphate-buffered saline (PBS, pH 7.2). At the end of the drug treatment period (24 or 48 or 72 hours), 10 μL of MTT solution was added to each well. After incubation for 4 hours at 37° C., 100 μL of solubilizing buffer (10% sodium dodecyl sulfate dissolved in 0.01 N HCl) was added to each well. After a 15-minute incubation at 37° C., the 96-well plate was read by a plate reader at 590 nm for absorbance density values to determine the cell viability. The cell viability (percentage of control) is calculated by using the following formula: (OD of treated well (−blank))/(mean OD control well (−blank))×100. […] Drug effects on these cells were determined in quadruplicate wells in three independent experiments.
# [2] = tested on: MDA-MB-468 cells; assay: cells; details: read-out: Cell Viability IC50 (μM) ± SEM
# Description: as §1
# [3] = tested on: MDA-MB-231 cells; assay: cells; details: read-out: Cell Viability IC50 (μM) ± SEM
# Description: as §1
# [4] = tested on: NK cells, monocytes and macrophages in PBMC and spleen; assay: Flow cytometry of immune cells in PBMC and spleen of xenografted rats; format: in vivo, rat; details: for NK cell numbers in PBMC and spleen: CD161a+ NK cells, flow cytometry
# Description: Peripheral blood mononuclear cells (PBMC) from control and drug-treated rats were isolated from freshly obtained EDTA whole blood by density gradient purification (Lymphoprep™, Stemcell Technologies™, Vancouver, BC, Canada) using 15 mL SepMate™ tubes (Stemcell Technologies™) as per the manufacture's protocol. The pelleted cells (PBMC) were counted in a hemocytometer and assayed for viability by the trypan blue dye exclusion method. PBMC cell pellets from 3 animals in each group were pooled, washed three times with PBS, and finally resuspended in 2 ml RPMI medium containing 10% heat-inactivated FBS (HI-FBS) and used for NK cell cytotoxicity. Aliquots of PBMC were frozen down at −80° C. by resuspending cells in freezing media containing HI-FBS and 10% DMSO in aliquots of 5-10×10^6 cells/mL using Nalgene Mr. Frosty Cryo 1° C. freezing containers (Thermo Fisher Scientific) before storage in liquid nitrogen. For flow cytometric analysis, frozen PBMC was thawed and resuspended in RPMI-1640 and was evaluated for viability by trypan blue, and all were […], then washed with PBS before starting flow cytometer experiments.
# Tumor-infiltrating immune cells were collected from MDA-MB-231 cell xenograft tumors to examine and compare the immune cell population among control and drug-treated animals. Briefly, single-cell suspensions of tumor tissue were achieved by mincing the tissue with a scalpel blade using a crisscross method, ground with 1-ml of ACK lysing buffer to remove red blood cells. The cell suspensions were filtered through a 70-micron sieve and then washed with PBS. Cells from the tumor were collected and dispersed with 100 μl of PBS and stained by the addition of fluorescence-conjugated antibodies. For flow cytometry experiments, single-cell suspension derived from tumors, PBMC, and splenocytes were used to characterize the immune cell population. Fluorophore-conjugated antibodies were used to detect surface markers of specific cell types and markers are as follows: for NK cells (CD161a (10/78)), tissue macrophage (RT1B (OX-6)), dendritic cells (CD103 (OX-62)), peripheral monocytes (CD11b (ED8)), B cells (CD45RA (OX-33)), and DAPI (Sigma) was used to exclude dead cells.
# Immune cells from the tumor, PBMC, and splenocyte samples were examined by following the gating strategy as described below. First, side scatter area (SSC-A) versus forward scatter area (FSC-A) were used to exclude cellular debris, then forward scatter height (FSC-H) versus FSC-A were used to select single cells. […] Additional negative controls (isotype control and fluorescence minus one (FMO)) were also used to determine any non-specific binding in the present study. The data collected from each sample were exported and analyzed using FlowJo™ version 10.7.
# [5] = tested on: MDA-MB-231, MDA-MB-468, and T47D cells; assay: Western blot of apoptotic regulatory proteins in breast cancer cells; format: cell-based, human; details: 100-μM, 48 hours (Example 9)
# Description: For protein analyses, tumor tissues from in vivo experiments, enriched NK cells from the spleen, and NK-92 MI cancer cell co-incubated samples were lysed with a buffer containing protease and phosphatase inhibitors (25 mM Tris-HCl, pH 7.4; 150 mM NaCl; 1% Nonidet P-40; 1 mM EDTA; and 5% glycerol with Pierce Halt Protease Inhibitor). Protein ([…]) from total lysate was loaded and separated on a 4-20% SDS-PAGE and transferred overnight to polyvinylidene difluoride membranes. Membranes were incubated with primary Ab for 12 hours at 4° C. in blocking buffer, 5% w/v nonfat dry milk in TBS, and 0.1% Tween 20. The following primary antibodies were purchased from Santa Cruz Biotechnology (Santa Cruz, CA): anti-perforin rabbit polyclonal (1:250), anti-granzyme B mouse monoclonal (1:200), anti-IFN-γ mouse monoclonal (1:250), anti-Snail (1:200), anti-Slug (1:200), and anti-Twist. Anti-E-cadherin (1:250), anti-N-cadherin (1:250), and anti-NKG2D goat polyclonal (1:500) were all from Abcam (Cambridge, MA). Membranes were washed and incubated with peroxidase-conjugated secondary Abs (1:5000; Vector Laboratories) for 1 hour at room temperature. Membranes were incubated with ECL western blot chemiluminescence reagent (Pierce) and exposed to x-ray film, which was developed, and densitometry was performed using Image J analysis software (National Institutes of Health). Each protein was normalized to corresponding intensities for β-actin.
# The effects on apoptotic regulatory protein levels and signaling pathway were determined by treating MDA-MB-231, MDA-MB-468, and T47D cells with a 100-μM concentration of the drugs alone or in combination or vehicle alone for 48 hours. After the treatment period, cell were extracted and used for Western blot analysis of anti-apoptotic p-Bcl-xL and p-Bcl2, effector proteins such as p-Bax, pro-apoptotic molecule p-Bim, effector caspase 3 and Cytochrome c levels. Representative blots and mean densitometric values are presented as ratio of β-actin in the histograms. Data presented are mean±SEM (n=5-6 samples/group) and were analyzed using one-way ANOVA with the Newman-Keuls multiple comparisons post hoc test.
# [6] = tested on: CT26 colon cancer cells; assay: CT26 colon cancer subcutaneous tumors in BALB/c mice; format: in vivo, mouse; details: male and female mice
# Description: Balb/c mice (both male and female) were obtained from Taconic Biosciences and injected with 1×10^6 cells of CT26. Once palpable tumors develop (˜50 mm3), animals were allocated into 6 groups (3 mice/group). […] Mice were monitored every day. Tumor volume and mice weight were measured daily. Animals were euthanized when the tumor reached 2,000 mm^3. […] For tumor growth study, Mouse CT26 colon cancer cells were grown until about 90% confluence just 1 day before injection. […] Three dimensions of tumor were measured using electronic calipers, and tumor volumes were calculated by the formula as, L×W^2/2. The mean±SE of tumor volume was calculated weekly for each experimental group and the data are expressed as mean absolute tumor volume.
structure (smiles),measurement,setting,value
"CC1(C)SSC(C)(C)[C@@H](NC(=O)[C@@H](N)Cc2ccc(O)cc2)C(=O)NCC(=O)N[C@@H](Cc2ccccc2)C(=O)N[C@H]1C(=O)O [DPDPE, (D-Pen^2, D-Pen^5)-enkephalin]",IC50,"[1]; read-out: Cell Viability IC50 (μM) ± SEM, 24 h",125.1 ± 1.21 µM
same,IC50,"[1]; read-out: Cell Viability IC50 (μM) ± SEM, 48 h",120.2 ± 1.17 µM
same,IC50,"[1]; read-out: Cell Viability IC50 (μM) ± SEM, 72 h",120.46 ± 0.04 µM
same,IC50,"[2]; MDA-MB-468, 24 h",115 ± 1.23 µM
same,IC50,"[2]; MDA-MB-468, 48 h",118 ± 1.22 µM
same,IC50,"[2]; MDA-MB-468, 72 h",120 ± 2.19 µM
same,IC50,"[3]; MDA-MB-231, 24 h",140.4 ± 0.39 µM
same,IC50,"[3]; MDA-MB-231, 48 h",120.8 ± 0.36 µM
same,IC50,"[3]; MDA-MB-231, 72 h",119.9 ± 1.07 µM
same,NK cell numbers in PBMC and spleen,[4],increased
"O=C1CC[C@@]2(O)[C@H]3Cc4ccc(O)c5c4[C@@]2(CCN3CC2CC2)[C@H]1O5 [NTX, 17-(cyclopropylmethyl)-4,5α-epoxy-3,14-dihydroxymorphinan-6-one]","anti-apoptotic Bcl-xL, p-Bcl-xL, Bcl-2, and p-Bcl-2",[5],downregulated
same,"levels of Bax, p-Bax and p-Bim",[5],increased
same,levels of Cytochrome c,[5],increased
same,IC50,"[1]; Homo sapiens, 24 h, read-out: Cell Viability IC50 (μM) ± SEM",125 ± 1.37 µM
same,IC50,"[1]; Homo sapiens, 48 h, read-out: Cell Viability IC50 (μM) ± SEM",122 ± 1.72 µM
same,IC50,"[1]; Homo sapiens, 72 h, read-out: Cell Viability IC50 (μM) ± SEM",120 ± 1.61 µM
same,IC50,"[2]; Homo sapiens, MDA-MB-468, 24 h",122.4 ± 0.63 µM
same,IC50,"[2]; Homo sapiens, MDA-MB-468, 48 h",121 ± 1.82 µM
same,IC50,"[2]; Homo sapiens, MDA-MB-468, 72 h",120 ± 1.23 µM
same,IC50,"[3]; Homo sapiens, MDA-MB-231, 24 h",140.8 ± 0.15 µM
same,IC50,"[3]; Homo sapiens, MDA-MB-231, 48 h",120.5 ± 0.38 µM
same,IC50,"[3]; Homo sapiens, MDA-MB-231, 72 h",121 ± 1.65 µM
same,NK cell numbers in PBMC and spleen,[4],increased
"CC(C)NCC(O)COc1cccc2ccccc12 (centres unmarked) [PRO, propranolol]","anti-apoptotic Bcl-xL, p-Bcl-xL, Bcl-2, and p-Bcl-2",[5],downregulated
same,"levels of Bax, p-Bax and p-Bim",[5],increased
same,levels of Cytochrome c,[5],increased
same,tumor volume,[6],decreasing tumor volume
same,NK cell numbers in PBMC and spleen,[4],increased
same,macrophage numbers in spleen,[4]; RT1B+ macrophages,reduced
